Results from publication PMC11407620, “Repurposing auranofin and meclofenamic acid as energy-metabolism inhibitors and anti-cancer drugs” (PLOS ONE, 2024).

Assays:
[1] = system: H9C2 mouse cardiomyocytes; assay: Cell proliferation, 24 h drug exposure (non cancer cells); type: cell-based; conditions: read-out: IC50 for proliferation cell rate
Protocol: All metastatic (breast MDA-MB231, MDA-MB468, cervix HeLa, prostate PC3, colorectal HCT116, COLO205, glioblastoma U373), low-metastatic (breast MCF-7) cancer and non-cancer (fibroblast 3T3, cardiomyocytes H9C2) cell lines (American Type Culture Collection, Rockville, MD, USA) used in this study were cultured in Petri dishes in 20 mL of Dulbecco’s Modified Eagle’s Medium (DMEM, Sigma, MO, USA) supplemented with 10% fetal bovine serum (Biowest, Mexico) and 10,000 U penicillin/streptomycin (Sigma-Aldrich, MO, USA). […] For growth and maintenance, cells were incubated in 5% CO2/95% air at 37°C and kept until 80–90% of confluence was reached. Then, cells were harvested, washed by centrifugation and resuspended in Krebs-Ringer buffer (KR, 125 mM NaCl, 5 mM KCl, 25 mM Hepes, 1 mM MgCl2, 1 mM KH2PO4, 1.4 mM CaCl2, pH 7.4) for further use. For experimentation, cancer cells (3–5 x 10^6 cells) were cultured in DMEM (with 25 mM glucose) for 24 h in the absence of drugs. Afterwards, old-medium was replaced with fresh DMEM medium (with 25 mM glucose) in the absence (control, non-treated cells) or in the presence of logarithmic concentrations of Aur and MA for 24 h more, under the same culture conditions described above. Viability of cultured cells was determined by the trypan blue exclusion assay. The protein concentration was determined by the Lowry method.
For cell proliferation in the presence of drugs, cancer cells (20 x 10^3 cells/well) were grown in 96-well plates containing DMEM (Sigma-Aldrich) plus 10% bovine fetal serum for 24 h. Afterwards, Aur or MA (0.01, 0.1, 10 and 100 μM) were added to the cell cultures and incubated for additional 24 h. The effect of these drugs on cell proliferation was determined in 96-well plates by the MTT (3-[4,5-dimethyl-thiazol-2-yl]-2,5-diphenyltetrazolium bromide) assay. The viability of cancer cells was > 95% after treatment with drugs.

[2] = system: HeLa cells; assay: Glycolysis flux (lactate production) in intact cells; type: cell-based, human
Protocol: (§1) For glycolysis flux, cells (3 mg protein/mL) were incubated in KR buffer. Glycolysis was started by adding 5 mM external glucose (Sigma-Aldrich, MO, USA), and cellular samples were withdrawn after 0 and 10 min of incubation at 37°C under smooth orbital shaking. At the indicated times, the cells were rapidly mixed with 3% (w/v) ice-cold perchloric acid and centrifuged. The supernatants were neutralized with 1N KOH/100mM Tris. To rule out lactate production by glutaminolysis, cells were also incubated with 10 mM 2-deoxyglucose (Sigma-Aldrich, MO, USA). Lactate was determined by a standard method with lactate dehydrogenase (Roche, Mannheim, Germany) following the NADH formation at 340 nm.

[3] = system: MDA-MB-231 cells; assay: as above; type: cell-based, human; conditions: +Aur 0.8 μM, 24 h
Protocol: as §1

[4] = system: HeLa, MDA-MB-231 and MDA-MB-468 cells; assay: Cell migration, wound healing assay; type: cell-based, human; conditions: Aur at IC50 (1.7, 0.8, 2 μM); 24 h
Protocol: The wound healing assay was performed for cell migration detection. In petri dishes with full DMEM, cancer cells (5 x 10^6 cells/well) were cultured at 37°C under 95% air and 5% CO2 until 80–90% confluence was attained. Afterwards, cell culture was wounded with a 1 mL pipette tip, washed twice with PBS (155 mM NaCl, 1.5 mM KH2PO4, 2.7 mM NaH2PO4, pH 7.2) and subsequently incubated at 37°C with fresh non-serum DMEM. Cellular migration images were taken in an inverted microscope (Zeiss, Thornwood, NY, USA) after 0 and 24 h incubation time. Using a graduated reticule (Zeiss, Thornwood, NY, USA), cellular migration was assessed from the petri dish’s border to its center distance travelled.
The Aur concentration added was 1.7, 0.8 and 2 μM for HeLa, MDA-MB-231 and MDA-MB-468 cells, respectively. n = 3; *p < 0.05, **p<0.01 vs. Control (Non-treated cells).

[5] = system: HeLa, MDA-MB-231 and MDA-MB-468 cells; assay: Cell invasiveness, Boyden chamber; type: cell-based, human; conditions: Aur at IC50 (1.7, 0.8, 2 μM); 24 h
Protocol: (§2) The 96-multiwell Boyden chambers (Merck Millipore, MA, USA) assay was performed for cellular invasiveness detection. Cancer cells (5 × 10^4 cells/well) were re-suspended in free-serum DMEM and placed in the upper Boyden chamber compartment. Free-serum DMEM was also placed in the lower compartment of the chamber. Afterwards, the Boyden chamber was placed at 37°C and 95% air/5% CO2 for 24 h. Invasive cancer cells within the lower chamber compartment were detected by using the calcein-AM (60 nM, 1 h) assay at 37°C. Calcein-fluorescence was measured at λexcitation = 485 nm and λemission = 520 nm in a Nunclon microplate reader (Roskilde, Denmark).
(§3) The Aur concentration added was 1.7, 0.8, 2 and 0.6 μM for HeLa, MDA-MB-231, MDA-MB-468 and U373 cells, respectively. n = 3; *p < 0.05, **p<0.01 vs. Control (Non-treated cells).

[6] = system: U373 glioblastoma cells; assay: Cell invasiveness, Boyden chamber; type: cell-based, human; conditions: 0.6 μM Aur, 24 h
Protocol: as §2, §3

[7] = system: ovarian cancer A2780 cells; set-up: method as in PMID 35358852; conditions: cited from earlier work
[8] = system: Rat Heart Mitochondria; assay: Oxygen consumption of isolated mitochondria; type: biochemical; conditions: 5 mM Glutamate/5 mM Malate
Protocol: Rat liver (RLM) and heart (RHM) mitochondria were isolated as described previously by differential centrifugation.
Respiration of AS-30D, liver and heart mitochondria (1 mg protein/mL) was assayed oxygraphically with a Clark-type O2 electrode in KME (120 mM KCl, 20 mM Mops, 1 mM EGTA) buffer pH 7.2 plus 2 mM KH2PO4, and different oxidizable substrates (as indicated in Results). For state 3 respiration, 600 nmol ADP were added. Mitochondria were incubated at 37°C with Aur and MA for 30–60 s before substrates were added. At the end of each respiratory measurement, dithionite was added to get the chemical zero oxygen signal.

| Compound | IC50 [1] [µM] | Glycolysis flux ([2]; +Aur 1.7 μM, 24 h) | glycolytic flux inhibition ([2]; Aur alone (Table 2)) [%] | Glycolysis flux [3] | inhibition of migration [4] | inhibition of invasiveness [5] | inhibition of cell invasiveness [6] [%] | inhibition of cancer cell total oxygen consumption [7] | Net State 3 oxygen consumption rate ([8]; 10 μM MA) | Pseudo State 4 oxygen consumption rate ([8]; 10 μM MA) | RC ([8]; 10 μM MA) | State 3 oxygen consumption rate ([8]; 10 μM MA) | State 4 oxygen consumption rate ([8]; 10 μM MA) | Net State 3 oxygen consumption rate ([8]; 50 μM MA) | Pseudo State 4 oxygen consumption rate ([8]; 50 μM MA) | RC ([8]; 50 μM MA) | State 3 oxygen consumption rate ([8]; 50 μM MA) | State 4 oxygen consumption rate ([8]; 50 μM MA) |
| --- | --- | --- | --- | --- | --- | --- | --- | --- | --- | --- | --- | --- | --- | --- | --- | --- | --- | --- |
| CC(=O)OC[C@H]1O[C@@H]([S-])[C@H](OC(C)=O)[C@@H](OC(C)=O)[C@@H]1OC(C)=O.CCP(CC)CC.[Au+] [Aur, [1-(thio-κS)-β-D-glucopyranose-2,3,4,6-tetraacetyl] (triethylphosphine)-gold] | 78 ± 15 | 4 ± 3 (3) nmol lactate min^-1 mg protein^-1 | 75 | 3 ± 2 (3) nmol lactate min^-1 mg protein^-1 | 90–95% | 45–80% | 75 | around 25% |  |  |  |  |  |  |  |  |  |  |
| Cc1ccc(Cl)c(Nc2ccccc2C(=O)O)c1Cl [MA, Meclofenamic acid] | > 100 |  |  |  |  |  |  |  | 48 ± 83 | 143 ± 42 (3) | 1.4 ±0.6 (3) | 177 ± 56 (3) | 126 ± 16 (3) | 12.5± 22 | 134 ± 9.5 (3) | 1 (3) | 139 ± 22 (3) | 139 ± 22 (3) |
